How the values were obtained:
Type in all cases: functional
UO-31 = experiment: Cytotoxicity against human UO31 cells assessed as cell growth at 1 uM incubated for 48 hrs by sulforhodamine B assay relative to control; conditions: UO-31, 48 h, read-out: Activity
SNB-75 = experiment: Cytotoxicity against human SNB75 cells assessed as cell growth at 10 uM incubated for 48 hrs by sulforhodamine B assay relative to control; conditions: SNB-75, 48 h, read-out: Activity
HCT-15 = experiment: Cytotoxicity against human HCT15 cells incubated for 48 hrs by sulforhodamine B assay; conditions: HCT-15, 48 h
SK-MEL-2 = experiment: Cytotoxicity against human SK-MEL-2 cells assessed as cell growth at 0.01 uM incubated for 48 hrs by sulforhodamine B assay relative to control; conditions: SK-MEL-2, 48 h, read-out: Activity
HCT-116 = experiment: Cytotoxicity against human HCT116 cells assessed as cell growth at 0.01 uM incubated for 48 hrs by sulforhodamine B assay relative to control; conditions: HCT-116, 48 h, read-out: Activity
ACHN = experiment: Cytotoxicity against human ACHN cells incubated for 48 hrs by sulforhodamine B assay
NCI-H522 = experiment: Cytotoxicity against human NCI-H522 cells assessed as cell growth at 100 uM incubated for 48 hrs by sulforhodamine B assay relative to control; conditions: NCI-H522, 48 h, read-out: Activity
MCF7 = experiment: Cytotoxicity against human MCF7 cells assessed as cell growth at 0.1 uM incubated for 48 hrs by sulforhodamine B assay relative to control; conditions: MCF7, 48 h, read-out: Activity
A498 = experiment: Cytotoxicity against human A498 cells assessed as cell growth at 100 uM incubated for 48 hrs by sulforhodamine B assay relative to control; conditions: A498, 48 h, read-out: Activity
OVCAR-4 = experiment: Cytotoxicity against human OVCAR4 cells assessed as cell growth at 1 uM incubated for 48 hrs by sulforhodamine B assay relative to control; conditions: OVCAR-4, 48 h, read-out: Activity
DU-145 = experiment: Cytotoxicity against human DU145 cells assessed as cell growth at 10 uM incubated for 48 hrs by sulforhodamine B assay relative to control; conditions: DU-145, 48 h, read-out: Activity
786-0 = experiment: Cytotoxicity against human 786-0 cells assessed as cell growth at 0.1 uM incubated for 48 hrs by sulforhodamine B assay relative to control; conditions: 786-0, 48 h, read-out: Activity
RPMI-8226 = experiment: Cytotoxicity against human RPMI8226 cells assessed as cell growth at 1 uM incubated for 48 hrs by sulforhodamine B assay relative to control; conditions: RPMI-8226, 48 h, read-out: Activity
U-251 = experiment: Cytotoxicity against human U251 cells assessed as cell growth at 10 uM incubated for 48 hrs by sulforhodamine B assay relative to control; conditions: U-251, 48 h, read-out: Activity
HOP-92 = experiment: Cytotoxicity against human HOP92 cells assessed as cell growth at 10 uM incubated for 48 hrs by sulforhodamine B assay relative to control; conditions: HOP-92, 48 h, read-out: Activity
UACC-62 = experiment: Cytotoxicity against human UACC62 cells assessed as cell growth at 10 uM incubated for 48 hrs by sulforhodamine B assay relative to control; conditions: UACC-62, 48 h, read-out: Activity

## COc1ccc(-c2nocc2-c2cc(OC)c(OC)c(OC)c2)cc1
UO-31
  growth at 1 µM: 43%
SNB-75
  growth at 10 µM: 19%
HCT-15; read-out: GI50
  GI50: 0.044 µM
HCT-15; read-out: LC50
  LC50: > 100 µM
HCT-15; read-out: TGI
  TGI: > 100 µM
HCT-15; read-out: pGI50 (converted)
  GI50: 0.0437 µM
HCT-15; read-out: pLC50 (converted)
  LC50: > 100 µM
HCT-15; read-out: pTGI
  TGI: > 100 µM
SK-MEL-2
  growth at 0.01 µM: 99%
HCT-116
  growth at 0.01 µM: 92%
ACHN; read-out: GI50
  GI50: 1.19 µM
ACHN; read-out: LC50
  LC50 (concentration killing 50% of cells): > 100 µM
ACHN; read-out: TGI
  TGI: 49.4 µM
ACHN; read-out: pGI50 (converted)
  GI50: 1.2 µM
ACHN; read-out: pLC50 (converted)
  LC50 (concentration killing 50% of cells): > 100 µM
ACHN; read-out: pTGI (converted)
  TGI: 49 µM
NCI-H522
  growth at 100 µM: -48%
MCF7
  growth at 0.1 µM: 27%
A498
  growth at 100 µM: -33%
OVCAR-4
  growth at 1 µM: 49%
DU-145
  growth at 10 µM: 11%
786-0
  growth at 0.1 µM: 54%
RPMI-8226
  growth at 1 µM: 32%
U-251
  growth at 10 µM: 19%
HOP-92
  growth at 10 µM: 49%
UACC-62
  growth at 10 µM: 5%

— ChEMBL document CHEMBL4145521, “Regioselective synthesis of 3,4-diaryl-5-unsubstituted isoxazoles, analogues of natural cytostatic combretastatin A4” (Eur J Med Chem, 2018)
